# Results published in ChEMBL document CHEMBL5634108, “The latest perspectives of small molecules FMS kinase inhibitors” (Eur J Med Chem, 2023).
# pIC50: −log10 of the molar value.
# Legend:
# [1] = molecular target: T1, Macrophage colony-stimulating factor 1 receptor (Homo sapiens, UniProt P07333); experiment: Inhibition of CSF1R (unknown origin)
# [2] = molecular target: T2, Mast/stem cell growth factor receptor Kit (Homo sapiens, UniProt P10721); experiment: Inhibition of c-Kit (unknown origin) in presence of ATP
# Aurora kinase C [3] = molecular target: T3, Aurora kinase C (Homo sapiens, UniProt Q9UQB9); experiment: Inhibition of human AURKC by discoverX kinome scan assay
# T3 sequence (Q9UQB9 whole entry): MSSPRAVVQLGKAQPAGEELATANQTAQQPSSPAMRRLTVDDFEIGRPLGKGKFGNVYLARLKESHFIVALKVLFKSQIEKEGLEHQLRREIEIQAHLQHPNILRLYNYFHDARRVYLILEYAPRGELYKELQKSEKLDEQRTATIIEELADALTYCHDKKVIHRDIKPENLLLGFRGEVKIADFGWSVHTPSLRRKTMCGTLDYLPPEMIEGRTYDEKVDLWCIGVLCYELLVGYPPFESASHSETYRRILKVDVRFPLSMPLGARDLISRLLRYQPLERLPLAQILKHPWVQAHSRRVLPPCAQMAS
# [4] = molecular target: Receptor-type tyrosine-protein kinase FLT3 (Homo sapiens, UniProt P36888, ITD); experiment: Inhibition of FLT3 ITD mutant (unknown origin) preincubated for 60 mins followed by ATP addition and measured after 1 hr by ADP-Glo assay
# [5] = molecular target: T2, Mast/stem cell growth factor receptor Kit; experiment: Inhibition of KIT (unknown origin) using ATP as substrate incubated for 1 hrs by ELISA
# [6] = molecular target: T4, Vascular endothelial growth factor receptor 2 (Homo sapiens, UniProt P35968); experiment: Inhibition of KDR (unknown origin)
# Aurora kinase C [7] = molecular target: T3, Aurora kinase C; experiment: Inhibition of AURKC (unknown origin)
# [8] = molecular target: T5, Tyrosine-protein kinase receptor UFO (Homo sapiens, UniProt P30530); experiment: Inhibition of AXL (unknown origin) by FRET assay
# T5 sequence (P30530 whole entry): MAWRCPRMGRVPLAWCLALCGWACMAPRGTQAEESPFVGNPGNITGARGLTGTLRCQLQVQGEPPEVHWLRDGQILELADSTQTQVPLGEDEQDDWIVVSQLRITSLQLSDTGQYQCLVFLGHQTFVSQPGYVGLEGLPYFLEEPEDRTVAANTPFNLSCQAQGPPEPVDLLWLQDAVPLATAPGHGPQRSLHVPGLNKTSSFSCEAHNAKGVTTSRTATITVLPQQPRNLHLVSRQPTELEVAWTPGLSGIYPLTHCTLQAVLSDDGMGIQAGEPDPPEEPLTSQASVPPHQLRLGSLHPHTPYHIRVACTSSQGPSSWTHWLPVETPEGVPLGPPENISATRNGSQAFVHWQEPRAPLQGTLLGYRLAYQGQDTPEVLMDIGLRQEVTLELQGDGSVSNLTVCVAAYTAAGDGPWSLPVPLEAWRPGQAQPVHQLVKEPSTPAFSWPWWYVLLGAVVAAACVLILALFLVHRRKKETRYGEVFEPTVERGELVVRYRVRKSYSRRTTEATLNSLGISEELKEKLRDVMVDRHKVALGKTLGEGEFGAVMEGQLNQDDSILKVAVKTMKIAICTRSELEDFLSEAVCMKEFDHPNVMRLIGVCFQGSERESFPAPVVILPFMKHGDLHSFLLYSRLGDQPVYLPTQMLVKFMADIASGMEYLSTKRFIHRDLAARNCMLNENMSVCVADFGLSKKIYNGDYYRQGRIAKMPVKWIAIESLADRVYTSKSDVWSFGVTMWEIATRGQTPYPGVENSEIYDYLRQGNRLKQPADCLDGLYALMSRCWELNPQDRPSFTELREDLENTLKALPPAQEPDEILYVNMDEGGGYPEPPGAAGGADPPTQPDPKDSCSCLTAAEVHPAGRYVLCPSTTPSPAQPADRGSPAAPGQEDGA
# [9] = molecular target: Receptor-type tyrosine-protein kinase FLT3 (Homo sapiens) (UniProt P36888); experiment: Inhibition of FLT3 (unknown origin) at 10 uM relative to control
# [10] = molecular target: T6, Receptor-type tyrosine-protein kinase FLT3 (Homo sapiens, UniProt P36888); experiment: Inhibition of FLT3 (unknown origin) by enzymatic assay
# T6 sequence (P36888 whole entry): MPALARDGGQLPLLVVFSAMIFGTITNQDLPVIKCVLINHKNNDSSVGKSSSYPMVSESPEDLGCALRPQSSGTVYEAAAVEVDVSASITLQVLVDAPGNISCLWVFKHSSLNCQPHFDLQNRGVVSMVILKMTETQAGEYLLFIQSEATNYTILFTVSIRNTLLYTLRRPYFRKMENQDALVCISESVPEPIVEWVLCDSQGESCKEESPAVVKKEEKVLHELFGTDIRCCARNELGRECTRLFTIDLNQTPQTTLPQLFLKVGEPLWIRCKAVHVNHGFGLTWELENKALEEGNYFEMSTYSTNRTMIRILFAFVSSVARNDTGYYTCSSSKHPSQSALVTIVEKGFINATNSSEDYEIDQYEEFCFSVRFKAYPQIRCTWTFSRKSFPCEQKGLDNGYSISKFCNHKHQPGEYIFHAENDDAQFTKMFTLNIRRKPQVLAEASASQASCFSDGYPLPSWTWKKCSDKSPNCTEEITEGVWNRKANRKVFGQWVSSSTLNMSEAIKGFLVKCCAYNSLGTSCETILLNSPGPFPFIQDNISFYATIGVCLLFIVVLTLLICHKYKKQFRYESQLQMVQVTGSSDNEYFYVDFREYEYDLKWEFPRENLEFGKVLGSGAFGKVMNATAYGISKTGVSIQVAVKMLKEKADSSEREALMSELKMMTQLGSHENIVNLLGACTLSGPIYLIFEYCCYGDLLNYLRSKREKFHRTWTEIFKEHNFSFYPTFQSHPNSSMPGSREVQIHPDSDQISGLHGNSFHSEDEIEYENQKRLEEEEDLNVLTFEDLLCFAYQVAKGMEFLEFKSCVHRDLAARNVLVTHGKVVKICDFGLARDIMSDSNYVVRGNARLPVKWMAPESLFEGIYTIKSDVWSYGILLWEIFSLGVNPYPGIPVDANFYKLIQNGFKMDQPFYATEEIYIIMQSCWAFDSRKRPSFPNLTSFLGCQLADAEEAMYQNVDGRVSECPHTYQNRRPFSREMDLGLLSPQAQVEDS
# [11] = molecular target: T7, Tyrosine-protein kinase Lck (Homo sapiens, UniProt P06239); experiment: Inhibition of LCK (unknown origin) at 10 uM using 33P-ATP as substrate by biochemical Hotspot kinase assay relative to control
# [12] = molecular target: T1, Macrophage colony-stimulating factor 1 receptor; experiment: Inhibition of FMS (unknown origin) by kinase assay
# SF-268 = experiment: Growth inhibition of human SF-268 cells by sulforhodamine B assay; format: functional
# [13] = molecular target: T7, Tyrosine-protein kinase Lck; experiment: Inhibition of LCK (unknown origin) using TK as substrate incubated for 30 mins by HTRF assay
# Target sequence in this assay (P06239 whole entry): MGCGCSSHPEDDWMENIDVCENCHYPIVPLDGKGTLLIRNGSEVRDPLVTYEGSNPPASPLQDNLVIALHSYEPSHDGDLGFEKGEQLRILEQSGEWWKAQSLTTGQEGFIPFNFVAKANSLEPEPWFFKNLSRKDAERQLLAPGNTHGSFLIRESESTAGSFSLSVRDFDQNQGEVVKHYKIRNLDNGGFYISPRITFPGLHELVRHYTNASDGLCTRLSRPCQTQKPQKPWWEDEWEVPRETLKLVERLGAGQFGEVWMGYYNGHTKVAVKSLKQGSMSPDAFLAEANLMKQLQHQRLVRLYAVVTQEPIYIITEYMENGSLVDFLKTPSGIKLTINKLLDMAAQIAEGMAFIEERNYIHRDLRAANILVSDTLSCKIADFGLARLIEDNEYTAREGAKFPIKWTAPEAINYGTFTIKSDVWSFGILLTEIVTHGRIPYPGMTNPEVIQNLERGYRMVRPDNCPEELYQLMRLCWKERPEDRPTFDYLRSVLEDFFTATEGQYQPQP
# [14] = molecular target: T4, Vascular endothelial growth factor receptor 2; experiment: Inhibition of VEGFR-2 (unknown origin) in presence of ATP incubated for 45 mins by ELISA method
# [15] = molecular target: Vascular endothelial growth factor receptor 1 (Homo sapiens, UniProt P17948); experiment: Inhibition of FLT1 (unknown origin)
# [16] = molecular target: T8, NT-3 growth factor receptor (Homo sapiens, UniProt Q16288); experiment: Inhibition of TRKC (unknown origin) by TR-FRET assay
# [17] = molecular target: T8, NT-3 growth factor receptor; experiment: Inhibition of TRKC (unknown origin)
# [18] = molecular target: Receptor-type tyrosine-protein kinase FLT3 (Homo sapiens) (UniProt P36888); experiment: Inhibition of FLT3 (unknown origin) at 10 uM by biochemical Hotspot kinase assay relative to control
# T1 sequence (P07333 whole entry): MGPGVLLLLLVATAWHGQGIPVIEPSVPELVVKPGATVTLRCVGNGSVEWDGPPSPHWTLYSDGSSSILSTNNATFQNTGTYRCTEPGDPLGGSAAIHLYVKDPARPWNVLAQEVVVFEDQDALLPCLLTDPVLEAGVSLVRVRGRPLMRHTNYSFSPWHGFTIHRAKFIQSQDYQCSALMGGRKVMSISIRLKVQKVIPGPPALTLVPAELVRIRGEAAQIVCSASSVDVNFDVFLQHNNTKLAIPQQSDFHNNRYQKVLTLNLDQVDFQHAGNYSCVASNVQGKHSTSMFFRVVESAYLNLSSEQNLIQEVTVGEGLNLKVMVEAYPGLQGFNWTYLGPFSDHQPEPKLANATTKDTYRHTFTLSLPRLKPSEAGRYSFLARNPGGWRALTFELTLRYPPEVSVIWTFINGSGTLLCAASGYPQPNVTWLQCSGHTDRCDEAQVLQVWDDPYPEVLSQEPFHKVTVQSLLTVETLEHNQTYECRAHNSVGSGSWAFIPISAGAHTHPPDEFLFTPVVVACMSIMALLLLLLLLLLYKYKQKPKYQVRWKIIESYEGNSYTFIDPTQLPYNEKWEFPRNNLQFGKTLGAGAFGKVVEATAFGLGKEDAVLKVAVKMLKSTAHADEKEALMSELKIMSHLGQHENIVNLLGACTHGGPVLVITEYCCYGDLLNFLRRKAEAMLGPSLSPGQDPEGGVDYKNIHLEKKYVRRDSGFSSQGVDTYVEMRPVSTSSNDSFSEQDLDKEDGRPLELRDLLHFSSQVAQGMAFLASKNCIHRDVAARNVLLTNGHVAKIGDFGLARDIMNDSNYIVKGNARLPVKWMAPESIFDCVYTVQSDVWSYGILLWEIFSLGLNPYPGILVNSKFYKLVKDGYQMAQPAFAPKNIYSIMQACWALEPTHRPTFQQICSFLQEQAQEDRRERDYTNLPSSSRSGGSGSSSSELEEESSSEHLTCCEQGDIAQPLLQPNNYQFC
# T2 sequence (P10721 whole entry): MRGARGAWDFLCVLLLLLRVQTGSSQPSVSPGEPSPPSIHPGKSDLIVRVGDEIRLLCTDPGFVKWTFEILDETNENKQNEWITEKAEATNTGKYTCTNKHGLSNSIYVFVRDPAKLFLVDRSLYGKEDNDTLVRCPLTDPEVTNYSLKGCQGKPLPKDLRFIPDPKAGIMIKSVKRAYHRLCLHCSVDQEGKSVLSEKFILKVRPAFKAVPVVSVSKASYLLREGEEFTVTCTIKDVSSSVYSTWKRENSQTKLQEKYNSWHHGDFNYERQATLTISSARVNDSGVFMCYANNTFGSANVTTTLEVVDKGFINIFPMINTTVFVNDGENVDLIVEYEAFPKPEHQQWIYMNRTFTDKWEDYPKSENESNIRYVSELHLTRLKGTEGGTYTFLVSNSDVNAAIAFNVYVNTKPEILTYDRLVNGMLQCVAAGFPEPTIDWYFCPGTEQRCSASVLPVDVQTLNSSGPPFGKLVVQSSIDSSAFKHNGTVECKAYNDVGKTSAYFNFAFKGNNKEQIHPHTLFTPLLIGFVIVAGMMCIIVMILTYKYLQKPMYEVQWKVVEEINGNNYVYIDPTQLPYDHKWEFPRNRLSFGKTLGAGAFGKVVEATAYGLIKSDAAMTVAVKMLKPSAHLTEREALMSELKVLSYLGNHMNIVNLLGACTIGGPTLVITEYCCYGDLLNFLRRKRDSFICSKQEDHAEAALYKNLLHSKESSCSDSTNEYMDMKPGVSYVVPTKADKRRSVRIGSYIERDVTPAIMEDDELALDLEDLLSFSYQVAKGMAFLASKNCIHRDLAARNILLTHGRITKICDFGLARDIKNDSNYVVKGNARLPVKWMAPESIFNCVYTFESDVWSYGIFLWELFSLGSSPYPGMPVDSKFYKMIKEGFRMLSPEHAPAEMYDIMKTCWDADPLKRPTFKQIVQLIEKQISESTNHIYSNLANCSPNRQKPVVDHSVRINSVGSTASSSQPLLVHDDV
# T8 sequence (Q16288 whole entry): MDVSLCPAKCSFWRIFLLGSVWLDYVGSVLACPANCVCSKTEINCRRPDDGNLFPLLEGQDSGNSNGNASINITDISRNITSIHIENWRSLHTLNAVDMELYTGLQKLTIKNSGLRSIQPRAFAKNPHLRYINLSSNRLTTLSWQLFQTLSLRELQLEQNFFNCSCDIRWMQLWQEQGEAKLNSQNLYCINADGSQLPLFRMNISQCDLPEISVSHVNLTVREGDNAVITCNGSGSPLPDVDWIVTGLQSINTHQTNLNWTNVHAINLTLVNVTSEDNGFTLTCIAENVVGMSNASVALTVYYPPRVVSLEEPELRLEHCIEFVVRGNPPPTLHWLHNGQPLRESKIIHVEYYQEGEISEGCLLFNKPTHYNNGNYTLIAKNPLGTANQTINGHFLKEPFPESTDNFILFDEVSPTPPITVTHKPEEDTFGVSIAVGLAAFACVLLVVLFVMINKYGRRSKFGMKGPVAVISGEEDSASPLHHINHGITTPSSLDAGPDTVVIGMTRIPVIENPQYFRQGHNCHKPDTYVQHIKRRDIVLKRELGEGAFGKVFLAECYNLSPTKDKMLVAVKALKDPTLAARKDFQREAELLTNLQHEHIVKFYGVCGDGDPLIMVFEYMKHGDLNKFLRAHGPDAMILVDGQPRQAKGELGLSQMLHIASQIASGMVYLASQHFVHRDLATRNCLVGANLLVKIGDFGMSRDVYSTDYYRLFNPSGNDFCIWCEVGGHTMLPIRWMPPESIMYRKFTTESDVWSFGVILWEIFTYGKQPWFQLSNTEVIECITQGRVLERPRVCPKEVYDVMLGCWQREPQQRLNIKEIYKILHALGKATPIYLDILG
# T4 sequence (P35968 whole entry): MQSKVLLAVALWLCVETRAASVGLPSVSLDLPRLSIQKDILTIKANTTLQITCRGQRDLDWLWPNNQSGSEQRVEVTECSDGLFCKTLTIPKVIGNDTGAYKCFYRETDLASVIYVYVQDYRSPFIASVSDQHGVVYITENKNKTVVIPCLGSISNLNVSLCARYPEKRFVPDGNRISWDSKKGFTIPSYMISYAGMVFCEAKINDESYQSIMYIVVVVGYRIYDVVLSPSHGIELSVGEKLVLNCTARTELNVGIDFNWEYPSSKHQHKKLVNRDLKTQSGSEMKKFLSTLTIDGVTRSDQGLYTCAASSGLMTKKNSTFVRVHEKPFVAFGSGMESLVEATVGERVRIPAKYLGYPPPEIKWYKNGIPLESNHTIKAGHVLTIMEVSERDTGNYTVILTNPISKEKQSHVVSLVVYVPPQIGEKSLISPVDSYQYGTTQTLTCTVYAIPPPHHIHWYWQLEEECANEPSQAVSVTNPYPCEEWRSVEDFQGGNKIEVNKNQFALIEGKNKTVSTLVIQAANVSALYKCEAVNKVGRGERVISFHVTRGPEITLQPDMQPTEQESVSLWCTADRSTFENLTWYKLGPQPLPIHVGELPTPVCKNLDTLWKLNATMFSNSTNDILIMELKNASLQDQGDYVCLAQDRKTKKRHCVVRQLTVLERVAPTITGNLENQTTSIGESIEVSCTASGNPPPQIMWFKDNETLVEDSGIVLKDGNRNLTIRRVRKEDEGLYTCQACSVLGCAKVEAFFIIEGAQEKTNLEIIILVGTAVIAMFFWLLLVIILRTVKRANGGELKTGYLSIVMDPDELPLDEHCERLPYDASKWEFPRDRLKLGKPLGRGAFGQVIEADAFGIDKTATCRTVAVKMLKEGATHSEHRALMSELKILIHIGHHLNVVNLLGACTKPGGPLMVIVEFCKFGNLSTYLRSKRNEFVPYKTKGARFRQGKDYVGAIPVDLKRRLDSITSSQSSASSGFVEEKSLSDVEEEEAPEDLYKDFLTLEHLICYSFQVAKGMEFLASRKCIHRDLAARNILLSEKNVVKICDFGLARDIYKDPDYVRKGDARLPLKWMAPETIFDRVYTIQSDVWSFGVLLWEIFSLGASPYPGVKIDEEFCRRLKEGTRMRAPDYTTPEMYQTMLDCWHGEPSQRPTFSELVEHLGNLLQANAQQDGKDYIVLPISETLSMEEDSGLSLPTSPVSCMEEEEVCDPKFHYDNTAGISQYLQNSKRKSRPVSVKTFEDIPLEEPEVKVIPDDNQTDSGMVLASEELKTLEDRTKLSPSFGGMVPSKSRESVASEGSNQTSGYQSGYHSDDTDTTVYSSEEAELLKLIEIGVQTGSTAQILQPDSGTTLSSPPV
structure (smiles),measurement,setting,value
Nc1nccc2c1ccn2-c1cccc(NC(=O)c2ccc(N3CCOCC3)c(C(F)(F)F)c2)c1,pIC50,[1],7.52
CNC(=O)c1nccc2cc(-c3cncc(Nc4ccc(OC5CC5)nc4)c3C)[nH]c12,pIC50,[2],8.95
COc1nc(F)ccc1CNc1ccc(Cc2c[nH]c3ncc(C)cc23)c(F)n1,pIC50,Aurora kinase C [3],7.80
same,pIC50,[4],6.41
same,pIC50,[5],6.07
same,pIC50,[6],5.96
same,pIC50,Aurora kinase C [7],6.00
COc1ccc(COc2ncc(Oc3ccnc(C(=O)N[11CH3])c3)cc2OC)cc1,pIC50,[1],7.92
CNC(=O)c1cc2c(Oc3ccc(NC(=S)NC(=O)Cc4ccccc4)cc3F)ccnc2cc1OC [TAS-115],pIC50,[8],7.82
Cc1nc2[nH]cc(Cc3ccc(NCc4ccc(C(F)(F)F)nc4)nc3)c2c(C)c1O,inhibition,[9],8.12%
same,pIC50,[2],5.79
same,pIC50,[1],4.24
CC1(C)CC=C(c2nc(C3CC(C)(C)OC(C)(C)C3)ccc2NC(=O)c2nc(C#N)c[nH]2)CC1 [EDICOTINIB],pIC50,[10],6.72
COc1ccc(Oc2nc(Nc3ccc(N4CCOCC4)cc3)ncc2NC(=O)c2cccc(SC)c2)cc1,inhibition,[11],87.7%
COc1cc(NC(=O)Nc2cnc(Nc3ccc(N4CCOCC4)cc3)nc2Oc2cccc(OC)c2)cc(OC)c1,pIC50,[12],7.82
same,GI50,SF-268,50.3 µM
FC(F)(F)c1ccc(CNc2ccc(Cc3c[nH]c4ncc(Cl)cc34)cn2)cn1 [PEXIDARTINIB],pIC50,[13],6.07
same,pIC50,[14],6.46
same,pIC50,[15],6.06
same,pIC50,[16],7.70
same,pIC50,[17],6.05
COc1ccc(Oc2nc(Nc3ccc(N4CCCCC4)nc3)ncc2NC(=O)c2cc(OC)cc(OC)c2)cc1,inhibition,[18],14.5%
